For one assay, the target named is T1, RON kinase (Homo sapiens, UniProt Q04912).
T1 construct: GST tagged recombinant human RON, amino acids 983-1400; GST; host or cells: insect cells
T1 sequence (Q04912 983-1400): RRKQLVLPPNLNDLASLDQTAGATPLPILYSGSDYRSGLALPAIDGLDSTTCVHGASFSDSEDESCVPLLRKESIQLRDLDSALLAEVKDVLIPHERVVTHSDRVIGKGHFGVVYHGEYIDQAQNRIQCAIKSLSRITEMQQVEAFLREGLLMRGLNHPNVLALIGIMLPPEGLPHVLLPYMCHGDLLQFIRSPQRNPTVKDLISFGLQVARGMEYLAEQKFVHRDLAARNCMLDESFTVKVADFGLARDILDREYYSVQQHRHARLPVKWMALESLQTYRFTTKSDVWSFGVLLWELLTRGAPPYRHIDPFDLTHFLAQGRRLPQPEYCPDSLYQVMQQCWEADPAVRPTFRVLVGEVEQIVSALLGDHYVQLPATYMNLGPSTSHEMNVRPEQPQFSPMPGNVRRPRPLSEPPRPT
The settings on record: values published in the '188/'556 applications; cited from earlier work.

The next assay concerns the target VEGFR-2 (KDR kinase) (Homo sapiens, UniProt P35968, DEL940-989/E990V). Conditions: values published in the '188/'556 applications; cited from earlier work.
Assay [1] addresses T2, c-MET kinase (Homo sapiens, UniProt P08581).
T2 construct: His6 with TEV-site leader (N); purchased Invitrogen PV3143
The settings on record: values published in the '188 application (pp. 96-97); cited from earlier work.

In assay [2] the target is T2, c-MET kinase. As to the kind of experiment: c-MET Kinase Assay. The settings on record: for fold potency versus c-MET kinase relative to corresponding mono-fluoro analog: Compound D vs Compound E, Compound G vs Compound F; for IC50: methods of the Biological Data section. The assay is classed as biochemical. As to the method: Activity of c-MET kinase (Seq. ID No. 2) was determined by following the production of ADP from the kinase reaction through coupling with the pyruvate kinase/lactate dehydrogenase system (e.g., Schindler et al. Science 2000, 289, pp. 1938-1942). In this assay, the oxidation of NADH (thus the decrease at A340 nm) was continuously monitored spectrophotometrically. The reaction mixture (100 μl) contained c-MET (c-MET residues: 956-1390, from Invitrogen, catalogue #PV3143, 6 nM), polyE4Y (1 mg/mL), MgCl2 (10 mM), pyruvate kinase (4 units), lactate dehydrogenase (0.7 units), phosphoenol pyruvate (1 mM), and NADH (0.28 mM) in 90 mM Tris buffer containing 0.25 mM DTT, 0.2% octyl-glucoside and 1% DMSO, 7.5. Test compounds were incubated with c-MET (Seq. ID No. 2) and other reaction reagents at 22° C. for 0.5 h before ATP (100 μM) was added to start the reaction. The absorption at 340 nm was monitored continuously for 2 hours at 30° C. on Polarstar Optima plate reader (BMG). The reaction rate was calculated using the 1.0 to 2.0 h time frame. Percent inhibition was obtained by comparison of reaction rate with that of a control (i.e., with no test compound). IC50 values were calculated from a series of percent inhibition values determined at a range of inhibitor concentrations using software routines as implemented in the GraphPad Prism software package.

Molecules are shown by their SMILES. Where two headings read alike, the source gives them in different places.

T2 sequence (P08581 with tags, fused parts or gaps): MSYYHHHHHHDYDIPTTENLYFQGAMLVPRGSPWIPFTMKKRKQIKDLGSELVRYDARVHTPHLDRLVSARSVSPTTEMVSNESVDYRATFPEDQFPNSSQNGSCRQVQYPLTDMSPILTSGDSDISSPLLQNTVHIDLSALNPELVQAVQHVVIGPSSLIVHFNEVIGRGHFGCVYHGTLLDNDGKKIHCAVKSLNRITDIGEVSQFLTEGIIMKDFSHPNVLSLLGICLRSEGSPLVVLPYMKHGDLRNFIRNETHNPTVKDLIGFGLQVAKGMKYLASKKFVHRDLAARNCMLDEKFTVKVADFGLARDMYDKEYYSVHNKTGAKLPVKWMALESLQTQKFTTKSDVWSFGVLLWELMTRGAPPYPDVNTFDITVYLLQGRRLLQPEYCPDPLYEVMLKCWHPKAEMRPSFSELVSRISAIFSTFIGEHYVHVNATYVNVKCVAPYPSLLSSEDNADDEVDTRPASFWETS
VEGFR-2 (KDR kinase), sequence (P35968 with tags, fused parts or gaps DEL940-989/E990V): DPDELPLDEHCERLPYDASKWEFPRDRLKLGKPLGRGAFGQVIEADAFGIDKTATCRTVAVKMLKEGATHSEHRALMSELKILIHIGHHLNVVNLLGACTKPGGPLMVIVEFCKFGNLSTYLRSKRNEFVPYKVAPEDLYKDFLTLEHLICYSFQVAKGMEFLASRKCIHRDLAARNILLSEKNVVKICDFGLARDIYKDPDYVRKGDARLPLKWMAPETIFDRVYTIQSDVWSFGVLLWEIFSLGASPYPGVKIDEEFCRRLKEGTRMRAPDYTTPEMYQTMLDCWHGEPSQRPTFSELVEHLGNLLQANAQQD

As for `O=C(Nc1cc(Oc2cc(F)c(NC(=O)C3(C(=O)Nc4ccc(F)cc4)CC3)cc2F)ccn1)N1CC(CO)C1` [Compound H], the values for the IC50 at RON kinase, on VEGFR-2 (KDR kinase) and on c-MET kinase [1] were 3 nM, 10 nM and 4 nM, respectively.

Turning to `CN1CCN(C2CCN(C(=O)Nc3cc(Oc4cc(F)c(NC(=O)C5(C(=O)Nc6ccc(F)cc6)CC5)cc4F)ccn3)CC2)CC1` [Compound G], the IC50 is 2 nM on RON kinase, 100 nM at VEGFR-2 (KDR kinase) and 53 nM at c-MET kinase [1]. Also, the “fold potency versus c-MET kinase relative to corresponding mono-fluoro analog” value at c-MET kinase [2] was determined as 1.1 fold.

For `CC(=O)Nc1cc(Oc2cc(F)c(NC(=O)C3(C(=O)Nc4ccc(F)cc4)CC3)cc2F)ccn1` [Compound D, N-(4-(2-acetamidopyridin-4-yloxy)-2,5-difluorophenyl)-N′-(4-fluorophenyl)cyclopropane-1,1-dicarboxamide], on c-MET kinase [2], the “fold potency versus c-MET kinase relative to corresponding mono-fluoro analog” value is 6.5 fold and the IC50 stood at 4 nM.

`CC(=O)Nc1cc(Oc2ccc(NC(=O)C3(C(=O)Nc4ccc(F)cc4)CC3)c(F)c2)ccn1` [Compound E, N-(4-(2-acetamidopyridin-4-yloxy)-2-fluorophenyl)-N′-(4-fluorophenyl)cyclopropane-1,1-dicarboxamide] registered an IC50 on c-MET kinase [2] of 26 nM.

Broadly, the IC50 is the midpoint of a concentration-inhibition curve.

These data come from patent US8637672B2 (Deciphera Pharmaceuticals, LLC, priority 2010, dated 2014).
